# Values quoted from earlier work in patent US20140100178A1, “COMPOSITION AND METHODS FOR SITE-SPECIFIC DRUG DELIVERY TO TREAT MALARIA AND OTHER LIVER DISEASES” (priority 2012, published 2014).
# Key:
# [1] = prophylactic doses (0.5 mg base/kg/day); children and men with normal G6PD activity; toxicity associated with >10%
# [2] = in vivo
structure (smiles),measurement,setting,value
"COc1cc(NC(C)CCCN)c2ncccc2c1 (centres unmarked) [primaquine, Primaquine]",mean methemoglobin rates,[1],5.8%
same,half life,[2],~4 h
